From patent US9968633B2, “Stimuli responsive compositions for iron chelation” (WISCONSIN ALUMNI RESEARCH FOUNDATION, priority 2014, dated 2018) come the findings set out here.

Data set [1] can be described thus: in vitro. As to conditions: mouse. How it is done:
(§1) Mouse macrophage/monocyte cell line, J774A.1, was purchased from American Type Culture Collection (ATCC). Cells were seeded in 96-well plates at a density of 3,000 cells/well, cultured at 37° C., 5% CO2 with DMEM complete medium (supplemented with 10% (v/v) heat-inactivated FBS, 100 I.U./mL penicillin and 100 μg/mL streptomycin), and allowed to settle for 24 h. Cells were then treated with DFO or oxNG-DFO at equivalent DFO concentrations of 1 mM prepared by 1:3 serial dilutions.
(§2) Cell viability was measured with the metabolism-based resazurin assay. Briefly, the substrate resazurin was dissolved in cell culture medium at a concentration of 44 μM, added to each well (100 μl) and incubated at 37° C. for 4 h. The fluorescence was measured with excitation at 560 nm and emission at 590 nm, on a SpectraMax Gemini EM microplate reader. Readings from the wells without cells were used as Eblank, and the readings from control cells without treatment (Econtrol) represented 100% cell viability. The viability of treated cells at different concentrations can be calculated by the following equation: […]
(§3) Similarly, cytotoxicity was also evaluated in iron-overloaded J774A.1 cells as described above.
(§4) To evaluate the cytotoxicity of the nanogels, cells in complete DMEM medium were treated with equivalent amounts of free DFO or oxNG2-DFO ranging from 0.05-1000 μM and allowed to incubate for 48 h prior to evaluating cytotoxicity with a metabolism-based resazurin assay.

Data set [2] concerns iron-overloaded J774A.1 cells. Briefly: cells. As to conditions: Mus musculus, J774.A1, 48 h, read-out: Concentration giving 50% cell viability. As to the method:
as §1, §2, §3, §4

Data set [3] concerns J774A.1 cells. Briefly: Cytotoxicity, resazurin assay, normal J774A.1 cells. Type of data set: cell-based. As to conditions: Mus musculus, J774.A1, 48 h, DFO equivalents, read-out: Concentration giving 50% cell viability.
For data set [4], the system named is iron-overloaded J774A.1 cells. Put plainly: Ferritin reduction assay in iron overloaded J774A.1 cells. The class given is cell-based, mouse. As to conditions: for Ferritin decrease: 48 h. As to the method:
J774A.1 cells were seeded in 6-well plates at a density of 30,000 cell/well and allowed to settle for 24 h at 37° C., 5% CO2 with DMEM complete medium before treatment. […] Subsequently, cells were washed with PBS and treated with DFO or oxNG-DFO at both 10 μM and 50 μM for 48 h. […] After 48 h incubation with DFO or oxNG-DFO, cells were lysed with cell lysis buffer (150 mM NaCl, 10 mM Tris, 1% Triton X-100 and protease inhibitor cocktail, pH 7.4) and total protein concentration was measured with the BCA protein assay kit. Cellular ferritin concentration was measured with a mouse ferritin ELISA kit. The results are plotted as the ratio of ng of ferritin per μg total protein concentration.
Subsequently, iron-loaded cells were treated for 48 h with 10 μM or 50 μM free DFO or equivalent oxNG2-DFO.

Data set [5] concerns Human umbilical vein endothelial cells (HUVEC). Briefly: Cytotoxicity, resazurin assay, HUVEC. Type of data set: cell-based. As to conditions: 48 h, DFO equivalents, read-out: Concentration to inhibit 50% cell growth. How it is done: Human umbilical vein endothelial cells (HUVEC) were obtained from Lonza, Inc., and cultured at 37° C./5% CO2 in EGM-2 complete medium. For the cytotoxicity assay, cells were seeded into 96-well plates at a density of 3,000 cell/well and allowed to equilibrate for 2 days before treatment. […] Readings from the wells without cells were used as blanks (Eblank), and the readings taken from control cells without treatment (Econtrol) 1 represented 100% cell viability. The viability of treated cells at each concentration can be calculated by the following equation: Cell Viability=100×(Esample˜Eblank)/(Econtrol˜Eblank)%
(In general: Alamar Blue is a resazurin reagent that responds to reducing activity.)

Several values for one entry are separate records, joined by “and”; a condition that tells them apart may be missing. Equal values may be shown once. Where a name gives a salt, the structure may show the parent alone.

What is called viability is a read-out of living cells in per cent, often relative to untreated cells. Read a high viability as better survival. With `CC(=O)N(O)CCCCCNC(=O)CCC(=O)N(O)CCCCCNC(=O)CCC(=O)N(O)CCCCCN` [DFO, Deferoxamine mesylate], the viability at 48 h, 10 μM in data set [1] is roughly 50%. The compound also gave a viability at 48 h, 50 μM in data set [1] of less than 50%. For the same compound, the IC50 in data set [2] was roughly 15 µM; in data set [3], roughly 10 µM; in data set [5], roughly 2 µM. Besides, the Cellular ferritin level in data set [4] is 5.33 ng/μg total protein and 2.84 ng/μg total protein. In addition, the Ferritin decrease in data set [4] (10 μM DFO or equivalent) came out at 37.4%; in data set [4] (50 μM DFO or equivalent), 66.6%.

On to Ferric ammonium citrate [FAC], for which, in data set [4], the “Cellular ferritin expression after iron loading” value turned out to be 8.51 ng/µg.
